Patent publication US20030225123A1, “Antihypertensive agents and use” (priority 2003, published 2003)
Values joined by “and” are separate entries in the source; they are usually repeats but may differ in a detail not shown here. Identical values can stand only once.

Key:
SHR = assay: Antihypertensive effect (MABP by radiotelemetry) of CI-1027, amlodipine and their combination in SHR (Example 2); type: in vivo, rat
Method: The general procedure of Example 1 was followed to evaluate the antihypertensive efficacy of the carboxyalkylether CI-1027 alone and in combination with the calcium channel blocker amlodipine.
Male SHR (15-20 weeks old, Charles River Laboratories) were prepared with indwelling aortic catheters and radiotransmitters for continuous measurement of arterial blood pressure and heart rate. Animals were allowed food and water ad libitum. Before dosing all rats were given a minimum of 7 days for recovery from surgery.
The experiment was carried out over 22 days in 3 groups of SHR. Group I served as a control and received 2 mL/kg/day of vehicle (same as in Example 1) for 22 consecutive days. Group II, used to determined the antihypertensive response to amlodipine monotherapy, was given vehicle for the first 13 consecutive days. Then on Day 14, amlodipine was added at a dose of 0.3 mg/kg/day for 3 consecutive days. The dose was then increased to 1 mg/kg/day for the next 3 days, and on the final 3 days, 3 mg/kg/day was given. To determine the response to CI-1027 monotherapy, Group III received a 13-day treatment with CI-1027 monotherapy at a dose of 30 mg/kg/day. The antihypertensive response to the combination therapy was determined by the addition of amlodipine to ongoing CI-1027 treatment on Day 14.
Drugs were suspended or dissolved in vehicle that contains 96% water, 3% carboxymethocellulose, and 1% tween 88. Compounds were given at 9 AM daily by oral gavage in a volume of 2 mL/kg. The combination of CI-1027 and amlodipine was given as a single gavage in a volume of 2 mL/kg.

[1] = tested on: spontaneously hypertensive rats (SHR); assay: Antihypertensive effect (MABP by radiotelemetry) of CI-1027, quinapril and their combination in SHR (Example 1); type: in vivo, rat
Method: The antihypertensive effects of the carboxyalkylether compound of Formula III (CI-1027), alone and in combination with an antihypertensive agent such as quinapril (CI-906), were evaluated in rats according to the following protocol. Male spontaneously hypertensive rats (SHR, 15-20 weeks old, Charles River Laboratories, Wilmington, Mass.) were prepared with indwelling aortic catheters and radiotransmitters (Data Sciences International, Saint Paul, Minn.). The radiotransmitters provided continuous measurement of aortic blood pressure waveform. From the aortic blood pressure waveform a Ponemah (Gould Instruments Inc, Valley View, Ohio) computer provided mean arterial blood pressure (MABP) and heart rate values continuously as one-minute averages. One-minute data was then summarized at 15-minute intervals using Excel (Microsoft Corporation, Redmond, Wash.) spreadsheets. Animals were allowed food and water ad libitum. To allow for recovery following surgery, rats were not dosed for a minimum of 7 days. Day 0 predose blood pressures were obtained by averaging eight 15-minute MABP measurements made 2 hours before dosing. To obtain the peak response to treatment (Days 0, 12, 16, 19, and 22), the 15-minute MABP measurements in the interval between 2 and 4 hours post-dose were averaged. Test compounds were given in a vehicle that contained 96% water, 3% carbomethocellulose (Sigma Chemical, Saint Louis, Mo.) and 1% tween […] (polyoxyethylenesorbitan monooleate, Sigma Chemical). CI-1027 and quinapril monotherapy were administered at 8:30 AM daily by oral gavage in a volume of 2 mL/kg. The combination of CI-1027 and quinapril was given as a single gavage in a volume of 2 mL/kg. The experiment was carried out over 22 days in 4 groups of animals. Group I served as a control and received 2 mL/kg/day of vehicle for 22 consecutive days. Group II, used to determine the antihypertensive response to quinapril monotherapy, was given vehicle for the first 12 to 13 consecutive days. Then on Day 13 to 14 quinapril was added at a dose of 0.3 mg/kg/day for 3 to 4 consecutive days; the dose was then increased to 1 mg/kg/day for the next 3 days, and on the final 3 days, 3 mg/kg/day was administered. To determine the response to CI-1027 monotherapy, Groups III and IV received 12-day treatment with CI-1027 monotherapy at doses of 30 and 100 mg/kg/day, respectively. To determine the antihypertensive response to the combination therapy quinapril, was added to the ongoing CI-1027 treatment (Day 13-14) using the rising dose protocol described for Group II (quinapril monotherapy). [table]

CCOC(=O)C1=C(COCCN)NC(C)=C(C(=O)OC)C1c1ccccc1Cl (stereo not drawn) [Amlodipine, amlodipine]
Peak MABP (SHR; Amlodipine 0.3 mg/kg/day oral, Day 16, 4-6 h postdose): 140 ± 6 mm Hg | Peak MABP (SHR; Amlodipine 1 mg/kg/day oral, Day 19, 4-6 h postdose): 131 ± 5 mm Hg | Peak MABP (SHR; Amlodipine 3 mg/kg/day oral, Day 22, 4-6 h postdose): 114 mm Hg and 114 ± 5 mm Hg | Threshold antihypertensive dose (SHR; amlodipine monotherapy (Group II), oral): 1 mg/kg/day

CC(C)(CCCCOCCCCC(C)(C)C(=O)O)C(=O)O [CI-1027]
Peak MABP ([1]; CI-1027 30 mg/kg/day oral, Day 0, 2-4 h postdose): 145 ± 4 mm Hg | Peak MABP ([1]; CI-1027 30 mg/kg/day oral, Day 12, 2-4 h postdose, 30 mg/kg/day): 131 mm Hg and 131 ± 3 mm Hg | Peak MABP ([1]; CI-1027 100 mg/kg/day oral, Day 0, 2-4 h postdose): 141 ± 4 mm Hg | Antihypertensive activity of monotherapy ([1]; CI-1027 monotherapy 30 and 100 mg/kg/day, 12 days): modest antihypertensive activity | Peak MABP (SHR; CI-1027 30 mg/kg/day oral, Day 0, 4-6 h postdose): 129 ± 4 mm Hg | Peak MABP (SHR; CI-1027 30 mg/kg/day oral, Day 13, 4-6 h postdose, 30 mg/kg/day): 120 mm Hg and 120 ± 8 mm Hg | Effect of monotherapy on blood pressure (SHR; CI-1027 monotherapy 30 mg/kg/day, 13 days): lowers blood pressure in the SHR

CCOC(=O)[C@H](CCc1ccccc1)N[C@@H](C)C(=O)N1Cc2ccccc2C[C@H]1C(=O)O [Quinapril, quinapril]
Peak MABP ([1]; Quinapril 0.3 mg/kg/day oral, Day 16, 2-4 h postdose): 122 ± 5 mm Hg | Peak MABP ([1]; Quinapril 1 mg/kg/day oral, Day 19, 2-4 h postdose): 121 ± 4 mm Hg | Peak MABP ([1]; Quinapril 3 mg/kg/day oral, Day 22, 2-4 h postdose): 117 mm Hg and 117 ± 4 mm Hg | Antihypertensive response at 3 mg/kg/day greater than at 0.3 mg/kg/day ([1]; Quinapril monotherapy, rising dose): 5 mm Hg
